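Dose response: 5 concentrations. Exposure: 48 h. Format: 96-well plates. Endpoint: linear interpolation; highest concentration if not reached. At the GI50, growth is halved. TGI: total growth inhibition.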
Experiments:
Assay in all cases: growth of human tumour cells (NCI), 48 h; in the data active means GI50 below about 0.43 µM; inactive means the rest
786-0 renal = tested on: 786-0 renal
HL-60(TB) leukemia = tested on: HL-60(TB) leukemia
OVCAR-8 ovarian = tested on: OVCAR-8 ovarian
DU-145 prostate = tested on: DU-145 prostate
SF-539 CNS = tested on: SF-539 CNS
UO-31 renal = tested on: UO-31 renal
UACC-257 melanoma = tested on: UACC-257 melanoma
K-562 leukemia = tested on: K-562 leukemia
OVCAR-5 ovarian = tested on: OVCAR-5 ovarian
SK-MEL-28 melanoma = tested on: SK-MEL-28 melanoma
CAKI-1 renal = tested on: CAKI-1 renal
PC-3 prostate = tested on: PC-3 prostate
RPMI-8226 leukemia = tested on: RPMI-8226 leukemia
HCC-2998 colon = tested on: HCC-2998 colon
SF-268 CNS = tested on: SF-268 CNS
EKVX NSCLC = tested on: EKVX NSCLC
NCI-H460 lung = tested on: NCI-H460 lung
T-47D breast = tested on: T-47D breast
NCI-H226 lung = tested on: NCI-H226 lung
BT-549 breast = tested on: BT-549 breast
U251 CNS = tested on: U251 CNS
TK-10 renal = tested on: TK-10 renal
SW-620 colon = tested on: SW-620 colon
MCF7 breast = tested on: MCF7 breast
MDA-MB-468 breast = tested on: MDA-MB-468 breast
SNB-19 CNS = tested on: SNB-19 CNS
SNB-75 CNS = tested on: SNB-75 CNS
HOP-62 NSCLC = tested on: HOP-62 NSCLC
UACC-62 melanoma = tested on: UACC-62 melanoma
SF-295 CNS = tested on: SF-295 CNS
HCT-116 colon = tested on: HCT-116 colon
HT29 colon = tested on: HT29 colon
OVCAR-3 ovarian = tested on: OVCAR-3 ovarian
MDA-MB-231 breast = tested on: MDA-MB-231 breast
ACHN renal = tested on: ACHN renal
NCI-H23 lung = tested on: NCI-H23 lung
SK-OV-3 ovarian = tested on: SK-OV-3 ovarian
SK-MEL-5 melanoma = tested on: SK-MEL-5 melanoma
SK-MEL-2 melanoma = tested on: SK-MEL-2 melanoma
NCI-H522 lung = tested on: NCI-H522 lung
MALME-3M melanoma = tested on: MALME-3M melanoma
HS 578T breast = tested on: HS 578T breast
IGROV1 ovarian = tested on: IGROV1 ovarian
NCI/ADR-RES ovarian = tested on: NCI/ADR-RES ovarian
LOX IMVI melanoma = tested on: LOX IMVI melanoma
SN12C renal = tested on: SN12C renal
OVCAR-4 ovarian = tested on: OVCAR-4 ovarian
MOLT-4 leukemia = tested on: MOLT-4 leukemia
COLO 205 colon = tested on: COLO 205 colon
SR leukemia = tested on: SR leukemia
A498 renal = tested on: A498 renal
HOP-92 NSCLC = tested on: HOP-92 NSCLC
KM12 colon = tested on: KM12 colon
RXF 393 renal = tested on: RXF 393 renal
CCRF-CEM leukemia = tested on: CCRF-CEM leukemia
MDA-MB-435 = tested on: MDA-MB-435
M14 melanoma = tested on: M14 melanoma
HCT-15 colon = tested on: HCT-15 colon
A549 NSCLC = tested on: A549 NSCLC

O=C(Nc1ccc(Cl)c(C(F)(F)F)c1)N1CCN(c2cc(-c3cn(-c4ccccc4)nc3-c3cccc(O)c3)ccn2)CC1
inactive: GI50 (786-0 renal) 4.02 µM | GI50 (HL-60(TB) leukemia) 2.34 µM | GI50 (OVCAR-8 ovarian) 4.72 µM | GI50 (DU-145 prostate) 7.15 µM | GI50 (SF-539 CNS) 4.21 µM | GI50 (UO-31 renal) 3 µM | GI50 (UACC-257 melanoma) 4.77 µM | GI50 (K-562 leukemia) 2.13 µM | GI50 (OVCAR-5 ovarian) 4.13 µM | GI50 (SK-MEL-28 melanoma) 3.41 µM | GI50 (CAKI-1 renal) 4.18 µM | GI50 (PC-3 prostate) 0.967 µM | GI50 (RPMI-8226 leukemia) 1.21 µM | GI50 (HCC-2998 colon) 6.1 µM | GI50 (SF-268 CNS) 3.3 µM | GI50 (EKVX NSCLC) 2.57 µM | GI50 (NCI-H460 lung) 2.47 µM | GI50 (T-47D breast) 1.13 µM | GI50 (NCI-H226 lung) 3.22 µM | GI50 (BT-549 breast) 3.33 µM | GI50 (U251 CNS) 4.23 µM | GI50 (TK-10 renal) 5.92 µM | GI50 (SW-620 colon) 4.78 µM | GI50 (MCF7 breast) 1.8 µM | GI50 (MDA-MB-468 breast) 1.03 µM | GI50 (SNB-19 CNS) 4.06 µM | GI50 (SNB-75 CNS) 0.634 µM | GI50 (HOP-62 NSCLC) 6.28 µM | GI50 (UACC-62 melanoma) 2.68 µM | GI50 (SF-295 CNS) 1.5 µM | GI50 (HCT-116 colon) 1.86 µM | GI50 (HT29 colon) 4.1 µM | GI50 (OVCAR-3 ovarian) 1.76 µM | GI50 (MDA-MB-231 breast) 3.07 µM | GI50 (ACHN renal) 3 µM | GI50 (NCI-H23 lung) 3.69 µM | GI50 (SK-OV-3 ovarian) 6.43 µM | GI50 (SK-MEL-5 melanoma) 2.58 µM | GI50 (SK-MEL-2 melanoma) 3.54 µM | GI50 (NCI-H522 lung) 2.77 µM | GI50 (MALME-3M melanoma) 3.3 µM | GI50 (HS 578T breast) 3.39 µM | GI50 (IGROV1 ovarian) 5.11 µM | GI50 (NCI/ADR-RES ovarian) 2.91 µM | GI50 (LOX IMVI melanoma) 2.99 µM | GI50 (SN12C renal) 3.21 µM | GI50 (OVCAR-4 ovarian) 2.02 µM | GI50 (MOLT-4 leukemia) 0.93 µM | GI50 (COLO 205 colon) 3.01 µM | GI50 (SR leukemia) 3.07 µM | GI50 (A498 renal) 4.72 µM | GI50 (HOP-92 NSCLC) 2.59 µM | GI50 (KM12 colon) 3.34 µM | GI50 (RXF 393 renal) 2.42 µM | GI50 (CCRF-CEM leukemia) 1.59 µM | GI50 (MDA-MB-435) 2.29 µM | GI50 (M14 melanoma) 3.03 µM | GI50 (HCT-15 colon) 2.84 µM | GI50 (A549 NSCLC) 4.34 µM
7.99 µM: TGI (BT-549 breast)
15.8 µM: TGI (NCI-H226 lung) | TGI (HS 578T breast)
11.9 µM: TGI (NCI/ADR-RES ovarian)
19.4 µM: TGI (CAKI-1 renal)
9.79 µM: TGI (RXF 393 renal)
7.58 µM: TGI (MOLT-4 leukemia)
11.8 µM: TGI (RPMI-8226 leukemia)
7.22 µM: TGI (MDA-MB-468 breast)
12.5 µM: TGI (M14 melanoma)
> 22 µM: TGI (786-0 renal) | TGI (OVCAR-8 ovarian) | TGI (DU-145 prostate) | TGI (SF-539 CNS) | TGI (UO-31 renal) | TGI (K-562 leukemia) | TGI (HCC-2998 colon) | TGI (SF-268 CNS) | TGI (NCI-H460 lung) | TGI (U251 CNS) | TGI (TK-10 renal) | TGI (SW-620 colon) | TGI (SNB-19 CNS) | TGI (HOP-62 NSCLC) | TGI (HCT-116 colon) | TGI (HT29 colon) | TGI (SK-OV-3 ovarian) | TGI (IGROV1 ovarian) | TGI (SN12C renal) | TGI (OVCAR-4 ovarian) | TGI (SR leukemia) | TGI (HCT-15 colon) | TGI (A549 NSCLC)
5.77 µM: TGI (UACC-62 melanoma)
6.52 µM: TGI (LOX IMVI melanoma)
10.1 µM: TGI (MCF7 breast)
14.3 µM: TGI (UACC-257 melanoma)
10.3 µM: TGI (SK-MEL-28 melanoma)
17 µM: TGI (PC-3 prostate) | TGI (ACHN renal)
5.45 µM: TGI (SK-MEL-5 melanoma)
6.33 µM: TGI (MDA-MB-435)
9.26 µM: TGI (NCI-H522 lung)
7.25 µM: TGI (SF-295 CNS)
11.1 µM: TGI (SNB-75 CNS)
19.6 µM: TGI (EKVX NSCLC)
14.8 µM: TGI (T-47D breast)
7.57 µM: TGI (MDA-MB-231 breast)
14.9 µM: TGI (NCI-H23 lung)
9.71 µM: TGI (CCRF-CEM leukemia)
10.5 µM: TGI (OVCAR-5 ovarian)
8.58 µM: TGI (HL-60(TB) leukemia)
9.39 µM: TGI (COLO 205 colon)
21 µM: TGI (A498 renal)
11.5 µM: TGI (OVCAR-3 ovarian)
7.56 µM: TGI (SK-MEL-2 melanoma)
8.95 µM: TGI (MALME-3M melanoma)
15.2 µM: TGI (KM12 colon)
15.9 µM: TGI (HOP-92 NSCLC)

From PubChem BioAssay (NCI)
